From patent US10894777B2, “TG2 inhibitor piperazine compounds and uses thereof” (UNIVERSITY OF OTTAWA, priority 2016, dated 2021)

Experiments:
[1] = tested on: SCC-13 cells; assay: Spheroid formation / survival assay, SCC-13 cells (ECS cells); assay type: cell-based, human; conditions: for spheroid formation (cancer stem cell survival): 8 d spheroids, 20 μM, 48 h
Procedure: Spheroid formation assay. Cells, maintained as monolayer cultures in growth medium consisting of DMEM (Invitrogen, Frederick, Md.) supplemented with 4.5 mg/ml D-glucose, […] L-glutamine, […] sodium pyruvate, and 5% fetal calf serum, were harvested, collected by centrifugation, and resuspended in spheroid medium comprising DMEM/F12 (1:1) (DMT-10-090-CV, Mediatech Inc., Manassas, Va.) supplemented with 2% B27 serum-free supplement (17504-044, Invitrogen, Frederick, Md.), 20 ng/ml EGF (E4269, Sigma, St. Louis, Mo.), 0.4% bovine serum albumin (B4287, Sigma) and 4 μg/ml insulin (19278 Sigma, St. Louis, Mo.). The cells (40,000) were plated in 9.6 cm^2 wells in Costar six well ultra-low attachment cluster dishes (4371, Corning, Tewksbury, Mass.). Spheroid size and number was monitored with time in culture as previously described (Adhikary, G. et al., PLoS One 8:e84324, 2013).
Spheroid formation assay. Spheroid formation assays were exactly as outlined previously (Adhikary, G. et al., PLoS ONE 8:e84324, 2013), except that the spheroids were grown in six well ultra-low attachment Costar cluster dishes (4371, Corning, Tewksbury, Mass.).
Spheroid formation assay. Spheroid formation assays were as reported previously (Adhikary, G. et al., PLoS One 8:e84324, 2013), except that the spheroids were grown in 6-well ultralow attachment Costar cluster dishes (Corning).

[2] = tested on: HaCaT cells; assay: Matrigel invasion assay, HaCaT cells; assay type: cell-based, human; conditions: 20 μM, 24 h
[3] = tested on: T98G cells; assay: Agarose colony formation assay, T98G cells; assay type: cell-based, human; conditions: 10 μM, 2 weeks
Procedure: Agarose colony formation assay. Agarose colony formation assay was conducted as described (Horman, S. R. et al., J. Biomol. Screen 18(10):1298-308, 2013; Zhang, K. et al., Tumour Biol. 35(3):2537-48, 2014) using 6-well plates and 5,000 cells in each well. 10 μM NC9 or DMSO was added to every layer at the start of the experiments. 2 mL liquid MEM containing 10 μM NC9 or DMSO was used to cover the agarose and it was changed 3 times a week. Colony growth was monitored every day and at the end of 10-15 days, the colonies were fixed with 4% paraformaldehyde, stained with 0.005% crystal violet, washed with PBS twice and 40 random pictures were taken from each treatment group. A person blinded for the treatments measured the area of the colonies using ImageJ program and the volumes were calculated from the area data under the assumption that the colonies are perfect spheres. The volumes were used to compare the effect of NC9 on colony growth.

[4] = tested on: GBM cells (U87 and T98G); assay: EdU incorporation assay; assay type: cell-based, human; conditions: 24 h
Procedure: EdU Incorporation Assay. After treatment of cells seeded in PolyD-Lys coated coverslips, half of the media was replaced with 10 μM EdU in 10% FBS MEM. After 90 min, cells were fixed with 4% PFA and permeabilized with 0.5% Triton X-100. Detection of EdU was performed as directed in the Click-iT EdU Alexa 647 kit (Life Technologies). 1:2000 Hoechst dilution was used to stain nuclei. Randomized pictures were taken for each group and a person blinded for the treatments counted the EdU and Hoechst positive cells.

[5] = molecular target: T1, TG2 (Homo sapiens, UniProt P21980); assay: Inhibitor modulation of recombinant TG2 conformation (native gel); assay type: biochemical; set-up: made in house; conditions: 500 μM inhibitor 1 h, then 0 or 500 μM GTP
T1 sequence (P21980 1-687): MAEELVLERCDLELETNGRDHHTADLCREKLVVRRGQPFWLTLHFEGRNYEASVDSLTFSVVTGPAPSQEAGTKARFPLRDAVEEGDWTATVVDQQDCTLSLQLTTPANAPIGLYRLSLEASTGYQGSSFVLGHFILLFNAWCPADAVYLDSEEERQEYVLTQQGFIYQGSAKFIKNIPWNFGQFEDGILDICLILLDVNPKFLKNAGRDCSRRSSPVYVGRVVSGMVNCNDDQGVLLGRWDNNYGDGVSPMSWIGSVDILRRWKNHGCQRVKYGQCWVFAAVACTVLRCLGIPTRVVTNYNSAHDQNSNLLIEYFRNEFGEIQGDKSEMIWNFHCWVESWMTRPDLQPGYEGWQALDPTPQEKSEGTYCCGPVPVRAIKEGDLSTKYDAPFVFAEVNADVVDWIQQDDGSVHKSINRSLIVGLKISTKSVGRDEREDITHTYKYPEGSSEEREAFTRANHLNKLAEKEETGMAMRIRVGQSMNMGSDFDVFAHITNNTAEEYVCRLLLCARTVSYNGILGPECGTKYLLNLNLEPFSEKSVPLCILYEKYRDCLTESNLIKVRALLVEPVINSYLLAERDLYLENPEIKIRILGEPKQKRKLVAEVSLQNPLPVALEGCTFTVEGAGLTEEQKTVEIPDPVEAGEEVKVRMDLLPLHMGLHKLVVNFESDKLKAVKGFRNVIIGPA
Procedure: Inhibitor modulation of recombinant TG2 conformation. Recombinant TG2 protein was prepared in the Center for Biomolecular Therapeutics by Dr. Eric Toth (University of Maryland School of Medicine). […] In some experiments, inhibitor and GTP were added simultaneously. Laemmli native loading buffer was added, and 6 μg of protein was electrophoresed on a native 4% to 6% acrylamide gel and electrophoresed at 125 V for 45 min at 4° C. using Tris-glycine running buffer (Pinkas, D. M. et al., PLoS Biol 5:e327, 2007; Begg, G. E. et al., Proc. Natl. Acad. Sci. USA 103:19683-8, 2006). The gel was subsequently fixed in 40% methanol/10% acetic acid for 30 min, stained 30 minutes with 0.25% Coomassie R-250, destained overnight with 10% methanol/10% acetic acid and photographed.

Compound	spheroid formation (cancer stem cell survival) [1]	invasion through matrigel [2]	colony growth, T98G [3]	proliferation (EdU incorporation) [4]	recombinant TG2 conformation, pre-incubation with inhibitor [5]	spheroid number, formation from single cells ([1]; 10 or 20 μM single addition, 0-14 days, after day eight)	spheroid number, pre-formed spheroids ([1]; spheroids grown for 8 days, then treated)
C=CC(=O)NCCCC[C@H](NC(=O)OCc1ccccc1)C(=O)N1CCN(C(=O)c2cc3ccc(O)cc3oc2=O)CC1 [VA5, (S)-Benzyl(6-acrylamido-1-(4-(7-hydroxy-2-oxo-2H-chromene-3-carbonyl)piperazin-1-yl)-1-oxohexan-2-yl)carbamate]	inhibited spheroid formation	suppressed	did not suppress colony growth	no effect	shifted TG2 from the closed to extended conformation and that this was not reversed by GTP addition	–	–
C=CC(=O)NCCCC[C@H](NC(=O)OCc1ccccc1)C(=O)NCCOCCOCCNS(=O)(=O)c1cccc2c(N(C)C)cccc12 [NC9]	inhibited spheroid formation	suppressed	significantly reduced the growth	slowed down the proliferation	shifted TG2 from the closed to extended conformation and that this was not reversed by GTP addition	selectively declined	reduced spheroid number
C=CC(=O)NCCCC[C@H](NC(=O)OCc1ccccc1)C(=O)N1CCN(S(=O)(=O)c2cccc3c(N(C)C)cccc23)CC1 [VA4, (S)-benzyl(6-acrylamido-1-(4-((5-(dimethylamino)naphthalen-1-yl)sulfonyl)piperazin-1-yl)-1-oxohexan-2-yl)carbamate]	inhibited spheroid formation	suppressed	inhibited colony growth	slowed down the proliferation	shifted TG2 from the closed to extended conformation and that this was not reversed by GTP addition	–	–
